Reference: article PMC5085761 (International Journal of Molecular Sciences, 2016)

What was measured:
OCT2 = molecular target: T1, OCT2 (Homo sapiens, UniProt O15244); assay: Inhibition of tracer uptake in OCT2-expressing cells; type: in vitro ADME; details: OCT2, tracer [14C]metformin 10 µM
T1 construct: host or cells: HEK293
T1 sequence (O15244 1-555): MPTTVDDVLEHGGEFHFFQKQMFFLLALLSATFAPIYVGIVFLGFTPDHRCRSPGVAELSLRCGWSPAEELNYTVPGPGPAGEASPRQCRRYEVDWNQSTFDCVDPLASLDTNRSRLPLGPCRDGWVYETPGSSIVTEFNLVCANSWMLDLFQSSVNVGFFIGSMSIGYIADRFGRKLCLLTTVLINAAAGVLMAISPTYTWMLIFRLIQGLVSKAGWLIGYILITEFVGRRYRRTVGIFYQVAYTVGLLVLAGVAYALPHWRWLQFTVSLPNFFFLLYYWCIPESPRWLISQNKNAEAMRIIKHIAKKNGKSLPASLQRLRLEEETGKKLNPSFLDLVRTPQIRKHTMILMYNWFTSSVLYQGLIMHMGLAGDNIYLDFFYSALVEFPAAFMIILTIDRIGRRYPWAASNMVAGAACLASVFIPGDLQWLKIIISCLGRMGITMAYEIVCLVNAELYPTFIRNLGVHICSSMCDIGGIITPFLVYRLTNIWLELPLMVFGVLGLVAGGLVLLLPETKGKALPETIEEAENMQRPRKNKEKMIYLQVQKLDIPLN

OATP1B1 = molecular target: T2, OATP1B1 (Homo sapiens, UniProt Q9Y6L6); assay: Inhibition of tracer uptake in OATP1B1-expressing cells; type: in vitro ADME; details: OATP1B1, tracer [3H]E2G 0.1 µM
T2 construct: host or cells: HEK293
T2 sequence (Q9Y6L6 1-691): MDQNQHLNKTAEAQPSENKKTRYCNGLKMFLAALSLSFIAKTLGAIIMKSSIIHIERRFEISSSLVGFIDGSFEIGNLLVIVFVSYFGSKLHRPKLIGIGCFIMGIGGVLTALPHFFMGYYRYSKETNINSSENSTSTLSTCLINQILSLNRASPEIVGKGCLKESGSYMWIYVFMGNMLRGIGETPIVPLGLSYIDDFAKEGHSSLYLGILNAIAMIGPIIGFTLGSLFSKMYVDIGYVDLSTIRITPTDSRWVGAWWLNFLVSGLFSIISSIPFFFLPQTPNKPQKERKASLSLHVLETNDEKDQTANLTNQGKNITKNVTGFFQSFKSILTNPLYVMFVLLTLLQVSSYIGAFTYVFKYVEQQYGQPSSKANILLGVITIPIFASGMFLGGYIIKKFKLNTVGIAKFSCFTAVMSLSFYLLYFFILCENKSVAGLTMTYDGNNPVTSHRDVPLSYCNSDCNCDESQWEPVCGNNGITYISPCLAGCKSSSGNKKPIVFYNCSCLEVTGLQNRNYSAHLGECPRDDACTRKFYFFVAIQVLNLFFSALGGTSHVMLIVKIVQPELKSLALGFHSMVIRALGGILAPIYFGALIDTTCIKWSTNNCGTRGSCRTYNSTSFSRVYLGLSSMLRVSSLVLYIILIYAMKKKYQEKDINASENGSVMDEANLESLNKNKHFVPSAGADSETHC
Protocol: For the SLC transporter experiments, Mock Flp-in-293 cells (Flp/mock), OAT1-expressing Flp-in-293 cells (Flp/OAT1), mock HEK293 cells (HEK/mock), and OATP1B3-expressing HEK293 cells (HEK/OATP1B3) were obtained from Kanazawa University (Ishikawa, Japan). Briefly, Flp-in-293 and HEK293 cells were transfected with the appropriate plasmid DNA and selected using antibiotics (hygromycin or G-418). All cell lines were cultured in DMEM (Life Technologies Japan) supplemented with 10% (v/v) fetal bovine serum (American Type Culture Collection) and antibiotics (100 U/mL penicillin and 100 μg/mL streptomycin (Life Technologies Japan) for mock cells, 0.2 mg/mL hygromycin for Flp/OAT1 cells, and 1.2 mg/mL G-418 (Roche Diagnostics K.K., Tokyo, Japan) for HEK/OATP1B3 cells) at 37 °C under an atmosphere containing 5% CO2. […]
The experiments were performed as described previously, with minor modifications. […] The cells were lysed in 0.3 mL of 0.1N NaOH at room temperature, after which the radioactivity of each aliquot was measured as described above. The protein concentration of the cell lysate was determined with a VersaMax microplate reader (Molecular Devices Japan K.K., Osaka, Japan) or SpectraMax i3x (Molecular Devices Japan K.K.; only for OATP1B1) using a BCA Protein Assay Kit (Thermo Fisher Scientific, Kanagawa, Japan). Tracer uptake was expressed as pmol/mg protein. […]

LLC-PK1 monolayer model = assay: Inhibition study of [14C]fluciclovine apical-to-basal transport, LLC-PK1 monolayer model
Text: Natural and synthetic amino acids were used as inhibitors: MeAIB (2-(methylamino)-isobutyric acid, for system A in the presence of Na^+); Thr (L-threonine, for system ASC in the presence of Na^+); and BCH (2-aminobicyclo[2,2,1]heptane-2-carboxylic acid, for system L in the absence of Na^+).

Work on N[C@]1(C(=O)O)C[C@@H](F)C1 [fluciclovine] yielded an IC50 (OCT2) of 8.95 ± 1.96 mM and an IC50 (OATP1B1) of 5.41 ± 2.49 mM.
N[14C]1(C(=O)O)CC(F)C1 (stereo not drawn) [[^14C]fluciclovine, trans-1-amino-3-fluoro[1-^14C]cyclobutanecarboxylic acid] was tested, and the “apical-to-basal transport rate, % of the control in Na+ buffer” value (LLC-PK1 monolayer model; Na+-free buffer, 10 µM, 120 min) was 58.8% and the “contribution of Na+-dependent transport to the total penetration amount” value (LLC-PK1 monolayer model; control in Na+-free buffer subtracted from control in Na+ buffer) was 41.2%.
